The subject of experiment [1] is Rhesus monkey. The experiment can be described thus: Reduction in morphine dependence in withdrawn rhesus monkey model assessed as attenuation of withdrawal effects at 0.5 mg/kg. The experiment is classed as functional, organism-based. Details: dose 0.5 mg/kg. The following applies: Macaca mulatta.
The test system of experiment [2] is Rhesus monkey. The experiment is described as follows: Reduction in morphine dependence in withdrawn rhesus monkey model assessed as attenuation of withdrawal effects at 0.1 mg/kg. Further details: dose 0.1 mg/kg. Particulars: Macaca mulatta. The experiment is classed as functional, organism-based.
Experiment [3] deals with Mus musculus. The experiment can be described thus: Antinociceptive activity in mouse assessed as tail withdrawal latency at 100 mg/kg by 55 degC warm water test. The experiment is classed as functional.
The nature of experiment [4]: Agonist activity at DOR in guinea pig vas deferens. The experiment is classed as functional, tissue-based. Particulars: Cavia porcellus.
Experiment [5] is described as follows: Displacement of [3H]Cl-DPDPE from DOR in guinea pig brain membrane. (In general: Loss of bound radioactivity is the signal in a displacement assay; it reports binding, not function.)
The target in experiment [6] is Mu-type opioid receptor (Cavia porcellus, UniProt P97266). The experiment can be described thus: Agonist activity at MOR in guinea pig vas deferens. The experiment is classed as functional, tissue-based.
In experiment [7] the target is Kappa-type opioid receptor (Cavia porcellus, UniProt P41144). The experiment is described as follows: Agonist activity at KOR in guinea pig vas deferens. It is filed as functional, tissue-based.

Calls of active or inactive are those of the source. The rule behind the calls is not given here.

What is called EC50 is the concentration giving half of the maximal effect. The Ki is a measure of affinity in units of concentration, obtained from inhibition or displacement.

Sequence of Mu-type opioid receptor (P97266 whole entry): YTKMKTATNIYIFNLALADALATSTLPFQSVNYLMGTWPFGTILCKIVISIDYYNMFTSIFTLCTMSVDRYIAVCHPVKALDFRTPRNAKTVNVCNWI
Sequence of Kappa-type opioid receptor (P41144 whole entry): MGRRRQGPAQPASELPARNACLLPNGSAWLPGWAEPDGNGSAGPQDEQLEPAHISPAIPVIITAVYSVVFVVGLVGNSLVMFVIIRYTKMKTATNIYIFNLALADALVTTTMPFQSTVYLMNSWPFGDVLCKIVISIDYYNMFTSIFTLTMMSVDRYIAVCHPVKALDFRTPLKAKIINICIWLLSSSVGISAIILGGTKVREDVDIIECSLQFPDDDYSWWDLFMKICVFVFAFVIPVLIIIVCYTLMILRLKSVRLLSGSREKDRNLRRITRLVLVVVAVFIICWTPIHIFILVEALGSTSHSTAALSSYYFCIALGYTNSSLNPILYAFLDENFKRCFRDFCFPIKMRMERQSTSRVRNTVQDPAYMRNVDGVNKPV

With `COC(=O)/C=C/C(=O)N[C@@]12CCC(=O)[C@@H]3Oc4c(O)ccc5c4[C@@]31CCN(CC1CC1)[C@@H]2C5`, the outcome in experiment [1] and in experiment [2] was inactive. Consider `CN1CC[C@]23c4c5ccc(O)c4O[C@H]2[C@@H](O)C=C[C@H]3[C@H]1C5` [MORPHINE], for which, in experiment [3], the Activity is 100%. In turn, `CO[C@@]12CC[C@@]3(C[C@@H]1[C@](C)(O)C(C)(C)C)[C@H]1Cc4ccc(O)c5c4[C@@]3(CCN1CC1CC1)[C@H]2O5` [BUPRENORPHINE] showed an EC50 in experiment [4] of 21 nM. Besides, the inhibition constant Ki in experiment [5] came out at 1.6 nM. For the compound `CO[C@]12CC[C@@]3(C[C@@H]1[C@](C)(O)C(C)(C)C)[C@H]1Cc4ccc(O)c5c4[C@@]3(CCN1CC1CC1)[C@H]2O5` [BUPRENORPHINE], the concentration for a half-maximal effect (EC50) in experiment [6] and in experiment [7] was 21 nM in each case.

The values are drawn from ChEMBL document CHEMBL2176977 (J Med Chem, 2012).
